In paper PMC8839585, “Development of a Real-Time Pectic Oligosaccharide-Detecting Biosensor Using the Rapid and Flexible Computational Identification of Non-Disruptive Conjugation Sites (CINC) Biosensor Design Platform” (Sensors (Basel, Switzerland), 2022):

Legend:
TogB [1] = molecular target: T1, TogB (Yersinia enterocolitica, UniProt A0ACH1C7V4, D363C); experiment: equilibrium fluorescence change of MDCC-labelled purified protein at […] ligand (n = […]); format: binding
T1 construct: gene yesO; TogB without signal secretion peptide, D363C conjugated to MDCC
T1 sequence (A0ACH1C7V4 27-430 D363C): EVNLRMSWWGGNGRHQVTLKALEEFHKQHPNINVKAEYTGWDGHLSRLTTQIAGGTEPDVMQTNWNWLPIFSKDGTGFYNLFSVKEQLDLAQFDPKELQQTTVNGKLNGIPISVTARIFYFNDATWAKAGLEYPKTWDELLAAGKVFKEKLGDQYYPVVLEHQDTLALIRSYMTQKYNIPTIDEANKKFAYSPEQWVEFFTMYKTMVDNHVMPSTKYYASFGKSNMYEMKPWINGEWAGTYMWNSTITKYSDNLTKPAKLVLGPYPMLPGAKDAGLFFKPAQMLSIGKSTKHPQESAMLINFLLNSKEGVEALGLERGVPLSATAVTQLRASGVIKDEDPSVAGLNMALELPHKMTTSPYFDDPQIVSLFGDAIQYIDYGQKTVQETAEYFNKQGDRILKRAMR

TogB [2] = molecular target: T1, TogB; experiment: stopped-flow fluorescence titration of MDCC-labelled purified protein; format: binding

`O=C(O)[C@H]1O[C@H](O[C@@H]2[C@H](O)[C@@H](O)[C@@H](O[C@@H]3[C@H](O)[C@@H](O)C(O)O[C@@H]3C(=O)O)O[C@@H]2C(=O)O)[C@H](O)[C@@H](O)[C@H]1O` (stereo partly drawn) [trigalUA, trigalacturonic acid] showed a fluorescence change (TogB [1]) of −44%.

Work on `O=C(O)C1=C[C@H](O)[C@@H](O)[C@@H](O[C@@H]2[C@H](O)[C@@H](O)C(O)O[C@@H]2C(=O)O)O1` (stereo partly drawn) [unsatdigalUA, 4,5-unsaturated digalacturonic acid] yielded a Kd (TogB [2]) of 1.3 ± 0.5 µM.

With `O=C(O)[C@H]1O[C@H](O[C@@H]2[C@H](O)[C@@H](O)C(O)O[C@@H]2C(=O)O)[C@H](O)[C@@H](O)[C@H]1O` (stereo partly drawn) [digalUA, digalacturonic acid] the Kd (TogB [2]) was 6 ± 1 µM.
